Results: the NIST ThermoML archive (doi:10.1021/je049960h)

Assay: xn = mol fraction of the nth substance listed
Details: 101.3 kPa, Liquid; for viscosity: Capillary tube (Ostwald / Ubbelohde) method; for mass density: Pycnometric method; for thermal conductivity: Hot wire method

CC(O)COC(C)COC(C)CO (configuration not stated) [2-[2-(2-hydroxypropoxy)propoxy]-1-propanol] + O
Details	mass density [kg/m3]	thermal conductivity [W/m/K]	viscosity [mPa·s]
294.8 K, x1 = 0.5	1028	–	66.6
295.35 K, x1 = 0.75	1021	–	71.2
295.4 K, x1 = 0.25	1037	–	36.7
297.3 K, x1 = 0.25	–	0.215	–
297.7 K, x1 = 0.75	–	0.157	–
298.1 K, x1 = 0.5	–	0.174	–
313.05 K, x1 = 0.25	1023	–	14.2
313.05 K, x1 = 0.5	1013	–	22.4
313.05 K, x1 = 0.75	1007	–	24.6
324.3 K, x1 = 0.25	–	0.22	–
325.2 K, x1 = 0.75	–	0.156	–
325.8 K, x1 = 0.5	–	0.174	–
333.05 K, x1 = 0.25	1006	–	6.27
333.1 K, x1 = 0.5	996.8	–	9.12
333.1 K, x1 = 0.75	990.4	–	9.92
349.1 K, x1 = 0.75	–	0.156	–
349.7 K, x1 = 0.25	–	0.223	–
350.2 K, x1 = 0.5	–	0.175	–
353.05 K, x1 = 0.25	989	–	3.36
353.05 K, x1 = 0.5	979.9	–	4.5
353.1 K, x1 = 0.75	973.7	–	4.93
368.25 K, x1 = 0.25	975.3	–	2.3
368.25 K, x1 = 0.5	966.8	–	2.96
368.25 K, x1 = 0.75	960.5	–	3.21
374.1 K, x1 = 0.25	–	0.224	–
375.1 K, x1 = 0.5	–	0.172	–
375.5 K, x1 = 0.75	–	0.155	–
378.15 K, x1 = 0.25	966.7	–	1.84
378.5 K, x1 = 0.5	957.4	–	2.32
378.55 K, x1 = 0.75	951.3	–	2.53
388.4 K, x1 = 0.5	947.8	–	1.88
388.4 K, x1 = 0.75	942.4	–	2.03
393.05 K, x1 = 0.25	953	–	–
394.05 K, x1 = 0.5	944	–	–
394.55 K, x1 = 0.25	–	–	1.35
395.15 K, x1 = 0.5	–	–	1.67
398.35 K, x1 = 0.75	933.3	–	1.66
398.9 K, x1 = 0.25	–	0.222	–
399 K, x1 = 0.5	–	0.172	–
399.4 K, x1 = 0.75	–	0.152	–
408.3 K, x1 = 0.75	924.3	–	1.44
408.65 K, x1 = 0.5	930.6	–	–
409.05 K, x1 = 0.25	936.6	–	–
411.65 K, x1 = 0.5	–	–	1.26
412.05 K, x1 = 0.25	–	–	1.01
412.45 K, x1 = 0.75	–	–	1.31
414.15 K, x1 = 0.75	918.6	–	–
422.5 K, x1 = 0.75	–	0.15	–
423 K, x1 = 0.25	–	0.22	–
424.5 K, x1 = 0.5	–	0.168	–
426.65 K, x1 = 0.25	918.9	–	–
426.75 K, x1 = 0.5	913.2	–	–
428.25 K, x1 = 0.75	–	–	1.02
429.25 K, x1 = 0.75	904.7	–	–
429.65 K, x1 = 0.25	–	–	0.785
429.75 K, x1 = 0.5	–	–	0.952
445 K, x1 = 0.75	889.5	–	–
446.15 K, x1 = 0.25	897.8	–	–
446.55 K, x1 = 0.75	–	–	0.791
446.85 K, x1 = 0.5	892.5	–	–
448.2 K, x1 = 0.25	–	0.213	–
448.3 K, x1 = 0.5	–	0.164	–
449 K, x1 = 0.75	–	0.144	–
449.15 K, x1 = 0.25	–	–	0.615
449.85 K, x1 = 0.5	–	–	0.738
